The results in this text go back to patent publication US20210395680A1, “COMPOSITION AND KIT FOR DIFFERENTIATION OF STEM CELLS INTO NEURAL PROGENITOR CELLS, AND METHOD USING SAME” (CHA UNIVERSITY INDUSTRY-ACADEMIC COOPERATION FOUNDATION, priority 2018, published 2021).

Experiment [1] deals with H9 human embryonic stem cells (hESCs). Description: Differentiation of H9 hESCs into neural progenitor cells via embryoid bodies; SOX1/P75 flow cytometry. The format is cell-based. As for the experimental part: Colonies obtained by culturing H9 human embryonic stem cells (hESCs) (WiCell Research Institute, Inc. Madison, Wis., U.S.A.) in a culture medium were dissociated into single cells using accutase (Life Technologies).
The cells dissociated into single cells were seeded in a culture plate coated with a protein such as vitronectin (VTN) (vitronectin XF, STEMCELL Technologies), laminine (rhLaminin-521, Thermo Fisher Scientific Inc., Waltham, Mass., USA), fibronectin (Thermo Fisher Scientific Inc.), or Matrigel™ (StemCell Technologies, Inc.). An embryonic stem cell (ESC) culture medium was added to the seeded cells to perform undifferentiation culture. As the ESC culture medium, Essential 8 (E8) medium (StemCell Technologies Inc.), TeSR2 medium (StemCell Technologies Inc), StemMACS (Miltenyi Biotec, Bergisch Gladbach, Germany), etc. was used.
(§1) The obtained colonies were finely chopped and suspension-cultured under conditions of 37° C. and 5% CO2 in a defined medium 1 containing 5 […] of a PKC inhibitor and 0.5 μM of a BMP inhibitor for about 4 days to prepare embryoid bodies (EBs). The defined medium 1 included DMEM/F12 (Life Technologies), 10 μg/ml of insulin (Sigma-Aldrich), 9 μg/ml of transferrin (Sigma-Aldrich), and 14 ng/ml of sodium selenite (Sigma-Aldrich). 3-(1-(3-Imidazol-1-yl propyl)-1H-indol-3-yl)-4-anilino-1H-pyrrole-2,5-dione) (PKC-beta inhibitor) (Millipore) was used as the PKC inhibitor. DMH1 (dorsomorphin homolog 1) (Tocris Bioscience, USA) which is a compound inhibiting BMP 1 type receptor was used as the BMP inhibitor. As a negative control, dimethyl sulfoxide (DMSO) (Sigma-Aldrich) was used instead of the drug.
EBs, which are round cell masses produced by suspension culture (defined medium 1) for about 4 days, were finely chopped, and then adhered to the bottom of the culture plate, followed by adherent culture for about 5 days (DMEM-F12, 1×N2 supplement, 25 μg/ml of insulin, 20 ng/ml of bFGF, and a matrigel-coated culture plate were used). Microscopic images of EBs obtained by suspension culture for about 4 days, and cells forming rossettes obtained by adherent culture for about 5 days are shown in FIG. 1B (left: embryoid bodies, right: cells forming rosettes).
2% (v/v) paraformaldehyde (Sigma-Aldrich) was added to cells cultured for a total of 9 days (suspension culture for 4 days+adherent culture for 5 days), and allowed to react at room temperature for about 10 minutes to fix the cells. 2% (v/v) normal serum/1×PBS (Vector Laboratories, Inc., Burlingame, Calif.) containing 0.1% (v/v) TRITON™ X-100 (Sigma-Aldrich) was added to the cells, and allowed to react at room temperature for 30 minutes to block the fixation. To analyze a proportion of cells expressing SOX1 which is a neural progenitor cell (NPC) marker or P75 protein which is a neural crest stem cell (NCSC) marker, immunostaining was performed using phycoerythrin (PE)-labeled anti-P75 monoclonal antibody (1:50 dilution) (Miltenyi Biotec), and phycoerythrin (PE)-labeled anti-Sox1 monoclonal antibody (1:100 dilution) (BD Biosciences). The immunostained cells were subjected to flow cytometry using a BD FACSCalibur flow cytometer (BD Biosciences, Sparks, Md., USA).
H9-hESCs were cultured by the method of differentiating via embryoid bodies as in Example 1.1(1). However, a defined medium 2 described below was used instead of the defined medium 1 used in Example 1.1(1).
The defined medium 2 was prepared by mixing knockout DMEM (Invitrogen), 20% (v/v) knockout serum replacement (KSR, Invitrogen), 2 mM L-glutamine (invitrogen), 1% (w/v) penicillin/streptomycin (Invitrogen), and 0.1 mM β-mercaptoethanol (Invitrogen).
H9-hESCs were cultured by the method of differentiating via embryoid bodies as in Example 1(1). However, a defined medium 3 was used instead of the defined medium 1 used in Example 1(1). The defined medium 3 was prepared by mixing DMEM/F12 (Invitrogen) and N2 supplement (Invitrogen). […]
Background: Flow cytometry measures light scatter and fluorescence of single cells or particles in a stream.

The test system of a further experiment is CHA6-hESC. Description: Differentiation of CHA6-hESC into neural progenitor cells; SOX1/P75 flow cytometry. The format is cell-based, human. The conditions noted are these: defined medium 1 including PKC inhibitor and BMP inhibitor; total of 9 days. As for the experimental part:
as §1
(§2) EBs, which are round cell masses produced by suspension culture (defined medium 1) for about 4 days, were finely chopped, and then adhered to the bottom of the culture plate, followed by adherent culture for about 5 days (DMEM-F12, 1×N2 supplement, 25 μg/ml of insulin, 20 ng/ml of bFGF, and a matrigel-coated culture plate were used). Microscopic images of EBs obtained by suspension culture for about 4 days, and cells forming rossettes obtained by adherent culture for about 5 days are shown in FIG. 1B (left: embryoid bodies, right: cells forming rosettes). […]

Experiment [2] has as its system induced pluripotent stem cell line (iPS cell #3). Description: Differentiation of induced pluripotent stem cell line (iPS cell #3) into neural progenitor cells; SOX1/P75 flow cytometry. The format is cell-based, human. Particulars: defined medium 1 including PKC inhibitor and BMP inhibitor; total of 9 days. The procedure:
as §1, §2

In the next experiment the test system is CHA15-hESC. Nature of the experiment: Differentiation of CHA15-hESC into neural progenitor cells; SOX1/P75 flow cytometry. The format is cell-based, human. Particulars: defined medium 1 including PKC inhibitor and BMP inhibitor; total of 9 days. The procedure:
as §1, §2

Experiment [3] relates to H9 human embryonic stem cells (hESCs). Description: Differentiation of H9 hESCs into neural progenitor cells via embryoid bodies; SOX1/P75 flow cytometry. The class given is cell-based. This is another data set of the same source.
Setting [4] is: defined medium 2 including PKC inhibitor and BMP inhibitor.
Setting [5] is: defined medium 3 including PKC inhibitor and BMP inhibitor.

Turning to `CC(C)Oc1ccc(-c2cnc3c(-c4ccnc5ccccc45)cnn3c2)cc1` [DMH1, 4-[6-[4-(1-methylethoxy)phenyl]pyrazolo[1,5-a]pyrimidin-3-yl]-quinoline], the “cells expressing SOX1 (NPC marker)” value in experiment [1] (defined medium 1, 5 μg/ml PKC inhibitor + 0.5 μM DMH1, suspension culture 4 days + adherent culture 5 days) is reported as “most of the cultured cells expressed SOX1”; in experiment [1] (defined medium 2 including PKC inhibitor and BMP inhibitor, 4 days suspension + 5 days adherent), “most of the cultured cells expressed SOX1”; in experiment [1] (defined medium 3 including PKC inhibitor and BMP inhibitor, 4 days suspension + 5 days adherent), “most of the cultured cells expressed SOX1”. In addition, the “number of cells expressing P75 (neural crest stem cell marker)” value is reported as “small” in experiment [1] (defined medium 1, 5 μg/ml PKC inhibitor + 0.5 μM DMH1, total of 9 days culture); “relatively very small” in experiment [1] (setting [4]); “relatively very small” in experiment [1] (setting [5]). Further, the “differentiation into NPC” value in experiment [1] (defined medium 1 including PKC inhibitor and DMH1) is given as “differentiation into NPC is induced”. Further, the “differentiation into NPCs” value (in experiment [1] (setting [4]); in experiment [1] (setting [5]); in the experiment on CHA6-hESC; in experiment [2]; in the experiment with CHA15-hESC) was “differentiation into NPCs is induced” each time. Further, the “differentiation into SOX1-expressing NPCs” value in experiment [3] (defined medium 1, 5 μM PKC inhibitor + 0.25 μM to 5 μM DMH1) is listed as at least 96%; in experiment [3] (defined medium 2, 5 μM PKC inhibitor + 5 μM DMH1), at least 96%. The “differentiation into P75-expressing neural crest stem cells” value in experiment [3] (defined medium 2, 5 μM PKC inhibitor + 0 μM to 0.5 μM DMH1) is given as at least 84%.
Consider `O=C1NC(=O)C(c2cn(CCCn3ccnc3)c3ccccc23)=C1Nc1ccccc1` [PKC inhibitor], for which, in experiment [3] (defined medium 1, only 5 μM PKC inhibitor without DMH1), the “differentiation into P75-expressing neural crest stem cells” value is at least 87%.
